Measurements: patent US6737383B1, “Herbicidal oxadiazolidines” (priority 1999, dated 2004)

Columns and labels:
surinam grass = assay: Test B pre/postemergence surinam grass; format: in vivo, Brachiaria decumbens
Procedure, shortened: (§1)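 Response is a visual 0-to-10 score relative to untreated plants, where 0 means no effect and 10 means complete control, taken twelve to sixteen days after application. Treatments went onto soil at planting and onto foliage of 1- to 4-leaf plants, using a surfactant-containing non-phytotoxic solvent.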

smallflower flatsedge = assay: Test B flood test smallflower flatsedge; format: in vivo, Cyperus difformis
Procedure, shortened: (§2)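 Flood test on plants grown to the 2-leaf stage; treated plants kept in greenhouse twelve to sixteen days, then visually rated against controls on a 0 (no effect) to 10 (complete control) scale.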

crabgrass = assay: Test B pre/postemergence crabgrass; format: in vivo, Digitaria sanguinalis
Procedure, shortened: as §1

giant foxtail = assay: Test B pre/postemergence giant foxtail; format: in vivo, Setaria faberii
Procedure, shortened: as §1

sugar beet = assay: Test B pre/postemergence sugar beet; format: in vivo, Beta vulgaris
Procedure, shortened: as §1

rice = assay: Test B flood test rice; format: in vivo, Oryza sativa
Procedure, shortened: as §2

duck salad = assay: Test B flood test duck salad; format: in vivo, Heteranthera limosa
Procedure, shortened: as §2

morningglory = assay: Test B pre/postemergence morningglory; format: in vivo, Ipomoea hederacea
Procedure, shortened: as §1

blackgrass = assay: Test B pre/postemergence blackgrass; format: in vivo, Alopecurus myosuroides
Procedure, shortened: as §1

soybean = assay: Test B pre/postemergence soybean; format: in vivo, Glycine max
Procedure, shortened: as §1

velvetleaf = assay: Test B pre/postemergence velvetleaf; format: in vivo, Abutilon theophrasti
Procedure, shortened: as §1

wheat = assay: Test B pre/postemergence wheat; format: in vivo, Triticum aestivum
Procedure, shortened: as §1

bedstraw = assay: Test B pre/postemergence bedstraw; format: in vivo, Galium aparine
Procedure, shortened: as §1

pigweed = assay: Test B pre/postemergence pigweed; format: in vivo, Amaranthus retroflexus
Procedure, shortened: as §1

wild oat = assay: Test B pre/postemergence wild oat; format: in vivo, Avena fatua
Procedure, shortened: as §1

cocklebur = assay: Test B pre/postemergence cocklebur; format: in vivo, Xanthium strumarium
Procedure, shortened: as §1

rape = assay: Test B pre/postemergence rape; format: in vivo, Brassica napus
Procedure, shortened: as §1

purple nutsedge = assay: Test B pre/postemergence purple nutsedge; format: in vivo, Cyperus rotundus
Procedure, shortened: as §1

bamyardgrass = assay: Test B flood test barnyardgrass; format: in vivo, Echinochloa crus-galli
Procedure, shortened: as §2

corn = assay: Test B pre/postemergence corn; format: in vivo, Zea mays
Procedure, shortened: as §1

[1] = Preemergence, Rate 62 g/ha, scale of 0 to 10 where 0 is no effect and 10 is complete control
[2] = Preemergence, Rate 250 g/ha, scale of 0 to 10 where 0 is no effect and 10 is complete control
[3] = Preemergence, Rate 500 g/ha, scale of 0 to 10 where 0 is no effect and 10 is complete control
[4] = Rate 62 g/ha, Postemergence, scale of 0 to 10 where 0 is no effect and 10 is complete control
[5] = Rate 125 g/ha, Preemergence, scale of 0 to 10 where 0 is no effect and 10 is complete control
[6] = Rate 500 g/ha, Postemergence, scale 0 to 10, 0 no effect, 10 complete control
[7] = Rate 62 g/ha, headed Pre-emergence (flood test species), scale 0 to 10 (0 no effect, 10 complete control)
[8] = Rate 125 g/ha, Pre-emergence, flood test species, scale 0 to 10 where 0 is no effect and 10 is complete control
[9] = Rate 250 g/ha, Pre-emergence, flood-test species, scale 0 to 10, 0 is no effect, 10 is complete control
[10] = Rate 500 g/ha, Pre-emergence, flood test species, scale 0 to 10 (0 no effect, 10 complete control)
[11] = Rate 125 g/ha, Postemergence, scale 0 to 10

Cc1noc(C)c1Cn1c(=O)on(C(=O)N(c2ccc(F)cc2)C(C)C)c1=O [Compound 259]
B. signalgrass plant response rating (surinam grass; [1]): 2 | B. signalgrass plant response rating (surinam grass; [2]): 8 | Plant response rating, B. signalgrass (surinam grass; [3]): 9 | B. signalgrass plant response rating (surinam grass; [4]): 0 | B. signalgrass plant response rating (surinam grass; Rate 125 g/ha, Postemergence, scale 0 (no effect) to 10 (complete control)): 0 | B. signalgrass plant response rating (surinam grass; [5]): 5 | Plant response rating (0 to 10; 0 is no effect, 10 is complete control), B. signalgrass (surinam grass; Rate 250 g/ha, Postemergence): 0 | B. signalgrass plant response rating (surinam grass; [6]): 0 | S. Flatsedge plant response rating (smallflower flatsedge; [7]): 0 | S. Flatsedge plant response rating (smallflower flatsedge; [8]): 0 | S. Flatsedge plant response rating (smallflower flatsedge; [9]): 0 | S. Flatsedge plant response rating (smallflower flatsedge; [10]): 0 | Crabgrass plant response rating (crabgrass; [1]): 4 | Plant response rating, Crabgrass (crabgrass; [3]): 7 | Crabgrass plant response rating (crabgrass; [5]): 4 | Plant response rating (0 to 10; 0 is no effect, 10 is complete control), Crabgrass (crabgrass; Rate 250 g/ha, Postemergence): 0 | Crabgrass plant response rating (crabgrass; [6]): 0 | Giant foxtail plant response rating (giant foxtail; [1]): 9 | Giant foxtail plant response rating (giant foxtail; [2]): 9 | Plant response rating, Giant foxtail (giant foxtail; [3]): 10 | Giant foxtail plant response rating (giant foxtail; [5]): 9 | Plant response rating (0 to 10; 0 is no effect, 10 is complete control), Giant foxtail (giant foxtail; Rate 250 g/ha, Postemergence): 0 | Giant foxtail plant response rating (giant foxtail; [6]): 0 | Sugarbeets plant response rating (sugar beet; [1]): 0 | Sugarbeets plant response rating (sugar beet; [2]): 0 | Plant response rating, Sugarbeets (sugar beet; [3]): 0 | Sugarbeets plant response rating (sugar beet; [5]): 0 | Sugarbeets plant response rating (sugar beet; [6]): 3 | Rice plant response rating (rice; [7]): 0 | Rice plant response rating (rice; [8]): 0 | Rice plant response rating (rice; [9]): 0 | Rice plant response rating (rice; [10]): 0 | Ducksalad plant response rating (duck salad; [7]): 0 | Ducksalad plant response rating (duck salad; [8]): 0 | Ducksalad plant response rating (duck salad; [9]): 0 | Ducksalad plant response rating (duck salad; [10]): 0 | Morningglory plant response rating (morningglory; [1]): 0 | Morningglory plant response rating (morningglory; [2]): 0 | Plant response rating, Morningglory (morningglory; [3]): 0 | Morningglory plant response rating (morningglory; [5]): 0 | Plant response rating (0 to 10; 0 is no effect, 10 is complete control), Morningglory (morningglory; Rate 250 g/ha, Postemergence): 7 | Morningglory plant response rating (morningglory; [6]): 8 | Blackgrass plant response rating (blackgrass; [1]): 2 | Blackgrass plant response rating (blackgrass; [2]): 10 | Plant response rating, Blackgrass (blackgrass; [3]): 10 | Blackgrass plant response rating (blackgrass; [4]): 0 | Blackgrass plant response rating (blackgrass; [11]): 0 | Blackgrass plant response rating (blackgrass; [5]): 10 | Plant response rating (0 to 10; 0 is no effect, 10 is complete control), Blackgrass (blackgrass; Rate 250 g/ha, Postemergence): 0 | Blackgrass plant response rating (blackgrass; [6]): 0 | Soybean plant response rating (soybean; [1]): 0 | Soybean plant response rating (soybean; [2]): 0 | Plant response rating, Soybean (soybean; [3]): 0 | Soybean plant response rating (soybean; [5]): 0 | Soybean plant response rating (soybean; [6]): 6 | Velvetleaf plant response rating (velvetleaf; [1]): 2 | Velvetleaf plant response rating (velvetleaf; [2]): 4 | Plant response rating, Velvetleaf (velvetleaf; [3]): 5 | Velvetleaf plant response rating (velvetleaf; [5]): 2 | Velvetleaf plant response rating (velvetleaf; [6]): 1 | Wheat plant response rating (wheat; [1]): 0 | Wheat plant response rating (wheat; [2]): 0 | Plant response rating, Wheat (wheat; [3]): 0 | Wheat plant response rating (wheat; [5]): 0 | Wheat plant response rating (wheat; [6]): 3 | Bedstraw plant response rating (bedstraw; [1]): 7 | Bedstraw plant response rating (bedstraw; [2]): 10 | Plant response rating, Bedstraw (bedstraw; [3]): 10 | Bedstraw plant response rating (bedstraw; [4]): 0 | Bedstraw plant response rating (bedstraw; [11]): 0 | Bedstraw plant response rating (bedstraw; [5]): 10 | Redroot pigweed plant response rating (pigweed; [1]): 0 | Redroot pigweed plant response rating (pigweed; [2]): 2 | Plant response rating, Redroot pigweed (pigweed; [3]): 8 | Redroot pigweed plant response rating (pigweed; [5]): 0 | Plant response rating (0 to 10; 0 is no effect, 10 is complete control), Redroot pigweed (pigweed; Rate 250 g/ha, Postemergence): 6 | Redroot pigweed plant response rating (pigweed; [6]): 7 | Wild oats plant response rating (wild oat; [1]): 2 | Wild oats plant response rating (wild oat; [2]): 4 | Plant response rating, Wild oats (wild oat; [3]): 4 | Wild oats plant response rating (wild oat; [5]): 2 | Wild oats plant response rating (wild oat; [6]): 0 | Cocklebur plant response rating (cocklebur; [1]): 0 | Cocklebur plant response rating (cocklebur; [2]): 0 | Plant response rating, Cocklebur (cocklebur; [3]): 0 | Cocklebur plant response rating (cocklebur; [4]): 0 | Cocklebur plant response rating (cocklebur; [11]): 2 | Cocklebur plant response rating (cocklebur; [5]): 0 | Plant response rating (0 to 10; 0 is no effect, 10 is complete control), Cocklebur (cocklebur; Rate 250 g/ha, Postemergence): 2 | Cocklebur plant response rating (cocklebur; [6]): 3 | Rape plant response rating (rape; [1]): 0 | Plant response rating, Rape (rape; [3]): 9 | Rape plant response rating (rape; [5]): 0 | Plant response rating (0 to 10; 0 is no effect, 10 is complete control), Rape (rape; Rate 250 g/ha, Postemergence): 0 | Nutsedge plant response rating (purple nutsedge; [1]): 0 | Nutsedge plant response rating (purple nutsedge; [2]): 0 | Plant response rating, Nutsedge (purple nutsedge; [3]): 0 | Nutsedge plant response rating (purple nutsedge; [5]): 0 | Plant response rating (0 to 10; 0 is no effect, 10 is complete control), Nutsedge (purple nutsedge; Rate 250 g/ha, Postemergence): 0 | Nutsedge plant response rating (purple nutsedge; [6]): 0 | Barnyardgrass plant response rating (bamyardgrass; [7]): 0 | Barnyardgrass plant response rating (bamyardgrass; [8]): 0 | Barnyardgrass plant response rating (bamyardgrass; [9]): 0 | Barnyardgrass plant response rating (bamyardgrass; [10]): 0 | Corn plant response rating (corn; [1]): 0 | Corn plant response rating (corn; [2]): 3 | Plant response rating, Corn (corn; [3]): 3 | Corn plant response rating (corn; [4]): 0 | Corn plant response rating (corn; [11]): 0 | Corn plant response rating (corn; [5]): 0 | Plant response rating (0 to 10; 0 is no effect, 10 is complete control), Corn (corn; Rate 250 g/ha, Postemergence): 0 | Corn plant response rating (corn; [6]): 0
